{
  "source": "paper PMC6136660",
  "about": "(Steroids, 2018)",
  "tested_on": "white blood cells and subsets (lymphocytes, neutrophils, eosinophils)",
  "test": "Differential white blood cell counts (immune suppression), MAD",
  "type": "in vivo, human",
  "conditions": "for Eosinophils: mean; for Lymphocytes / Neutrophil cell counts / White blood cells counts: mean±SEM, in 10^9/L (unit assumed)",
  "description": "A single dose of pharmacological glucocorticoids results in rapid changes in peripheral blood white cell counts, with increased neutrophils, and decreased lymphocytes. Increases of neutrophils are from release from peripheral tissues, whereas loss of lymphocytes is due to induction of apoptosis. Differential white blood cell counts were studied in all Phase 1 MAD subjects. […]\nplacebo. White blood cells and subsets (lymphocytes, neutrophils, eosinophils) were measured at screening, day -1, pre-dose on days 1-14, day 17, and at follow-up (recovery). Day 1 (pre-dose), Day 2 (24 hr after first dose), Day 14 and follow-up (recovery) time points are graphed […]",
  "key": {"[1]": {"conditions": "MAD 9.0 mg/kg, Day 1 predose, baseline"}, "[2]": {"conditions": "MAD 9.0 mg/kg, Day 17 (3 days after last dose)"}, "[3]": {"conditions": "MAD 9.0 mg/kg, Day 21 follow-up"}, "[4]": {"conditions": "MAD 9.0 mg/kg, Day -1, baseline"}, "[5]": {"conditions": "MAD 9.0 mg/kg, Screening, baseline"}, "[6]": {"conditions": "MAD 20.0 mg/kg, Day 1 predose, baseline"}, "[7]": {"conditions": "MAD 20.0 mg/kg, Day 17 (3 days after last dose)"}, "[8]": {"conditions": "MAD 20.0 mg/kg, Day 21 follow-up"}, "[9]": {"conditions": "MAD 20.0 mg/kg, Day -1, baseline"}, "[10]": {"conditions": "MAD 20.0 mg/kg, Screening, baseline"}},
  "data": [
    {"smiles": "C[C@@H]1C[C@H]2[C@@H]3CCC4=CC(=O)C=C[C@]4(C)C3=CC[C@]2(C)[C@@]1(O)C(=O)CO", "note": "[vamorolone]", "values": [
      {"measurement": "Eosinophils", "setting": "[1]", "value": "0.1 10^9/L"},
      {"measurement": "Lymphocytes", "setting": "[1]", "value": "1.8 ± 0.4"},
      {"measurement": "Neutrophil cell counts", "setting": "[1]", "value": "2.9 ± 0.9"},
      {"measurement": "White blood cells counts", "setting": "[1]", "value": "5.2 ± 1.1"},
      {"measurement": "Eosinophils", "setting": "MAD 9.0 mg/kg, Day 2 predose", "value": "0.13 10^9/L"},
      {"measurement": "Lymphocytes", "setting": "MAD 9.0 mg/kg, Day 2 predose", "value": "2.5 ± 0.7"},
      {"measurement": "Neutrophil cell counts", "setting": "MAD 9.0 mg/kg, Day 2 predose", "value": "3.7 ± 1.1"},
      {"measurement": "White blood cells counts", "setting": "MAD 9.0 mg/kg, Day 2 predose", "value": "6.7 ± 1.2"},
      {"measurement": "Eosinophils", "setting": "MAD 9.0 mg/kg, Day 3 predose", "value": "0.1 10^9/L"},
      {"measurement": "Lymphocytes", "setting": "MAD 9.0 mg/kg, Day 3 predose", "value": "2.7 ± 0.7"},
      {"measurement": "Neutrophil cell counts", "setting": "MAD 9.0 mg/kg, Day 3 predose", "value": "3.6 ± 0.7"},
      {"measurement": "White blood cells counts", "setting": "MAD 9.0 mg/kg, Day 3 predose", "value": "6.8 ± 1.0"},
      {"measurement": "Eosinophils", "setting": "MAD 9.0 mg/kg, Day 7 predose", "value": "0.1 10^9/L"},
      {"measurement": "Lymphocytes", "setting": "MAD 9.0 mg/kg, Day 7 predose", "value": "2.6 ± 0.6"},
      {"measurement": "Neutrophil cell counts", "setting": "MAD 9.0 mg/kg, Day 7 predose", "value": "3.4 ± 1.0"},
      {"measurement": "White blood cells counts", "setting": "MAD 9.0 mg/kg, Day 7 predose", "value": "6.6 ± 1.3"},
      {"measurement": "Eosinophils", "setting": "MAD 9.0 mg/kg, Day 12 predose", "value": "0.12 10^9/L"},
      {"measurement": "Lymphocytes", "setting": "MAD 9.0 mg/kg, Day 12 predose", "value": "2.8 ± 0.6"},
      {"measurement": "Neutrophil cell counts", "setting": "MAD 9.0 mg/kg, Day 12 predose", "value": "3.5 ± 0.9"},
      {"measurement": "White blood cells counts", "setting": "MAD 9.0 mg/kg, Day 12 predose", "value": "6.8 ± 0.9"},
      {"measurement": "Eosinophils", "setting": "MAD 9.0 mg/kg, Day 14 predose", "value": "0.13 10^9/L"},
      {"measurement": "Lymphocytes", "setting": "MAD 9.0 mg/kg, Day 14 predose", "value": "2.6 ± 0.6"},
      {"measurement": "Neutrophil cell counts", "setting": "MAD 9.0 mg/kg, Day 14 predose", "value": "3.6 ± 1.0"},
      {"measurement": "White blood cells counts", "setting": "MAD 9.0 mg/kg, Day 14 predose", "value": "6.8 ± 1.3"},
      {"measurement": "Eosinophils", "setting": "[2]", "value": "0.08 10^9/L"},
      {"measurement": "Lymphocytes", "setting": "[2]", "value": "1.9 ± 0.5"},
      {"measurement": "Neutrophil cell counts", "setting": "[2]", "value": "3.1 ± 0.7"},
      {"measurement": "White blood cells counts", "setting": "[2]", "value": "5.5 ± 0.7"},
      {"measurement": "Eosinophils", "setting": "[3]", "value": "0.12 10^9/L"},
      {"measurement": "Lymphocytes", "setting": "[3]", "value": "1.8 ± 0.7"},
      {"measurement": "Neutrophil cell counts", "setting": "[3]", "value": "2.9 ± 1.0"},
      {"measurement": "White blood cells counts", "setting": "[3]", "value": "5.2 ± 1.1"},
      {"measurement": "Eosinophils", "setting": "[4]", "value": "0.12 10^9/L"},
      {"measurement": "Lymphocytes", "setting": "[4]", "value": "2.1 ± 0.7"},
      {"measurement": "Neutrophil cell counts", "setting": "[4]", "value": "2.9 ± 0.6"},
      {"measurement": "White blood cells counts", "setting": "[4]", "value": "5.5 ± 1.1"},
      {"measurement": "Eosinophils", "setting": "[5]", "value": "0.1 10^9/L"},
      {"measurement": "Lymphocytes", "setting": "[5]", "value": "1.7 ± 0.5"},
      {"measurement": "Neutrophil cell counts", "setting": "[5]", "value": "3.0 ± 1.0"},
      {"measurement": "White blood cells counts", "setting": "[5]", "value": "5.2 ± 1.3"},
      {"measurement": "Eosinophils", "setting": "[6]", "value": "0.28 10^9/L"},
      {"measurement": "Lymphocytes", "setting": "[6]", "value": "2.2 ± 0.6"},
      {"measurement": "Neutrophil cell counts", "setting": "[6]", "value": "3.4 ± 1.1"},
      {"measurement": "White blood cells counts", "setting": "[6]", "value": "6.3 ± 1.4"},
      {"measurement": "Eosinophils", "setting": "MAD 20.0 mg/kg, Day 2 predose", "value": "0.17 10^9/L"},
      {"measurement": "Lymphocytes", "setting": "MAD 20.0 mg/kg, Day 2 predose", "value": "2.9 ± 0.8"},
      {"measurement": "Neutrophil cell counts", "setting": "MAD 20.0 mg/kg, Day 2 predose", "value": "4.5 ± 1.2"},
      {"measurement": "White blood cells counts", "setting": "MAD 20.0 mg/kg, Day 2 predose", "value": "8.0 ± 1.3"},
      {"measurement": "Eosinophils", "setting": "MAD 20.0 mg/kg, Day 3 predose", "value": "0.15 10^9/L"},
      {"measurement": "Lymphocytes", "setting": "MAD 20.0 mg/kg, Day 3 predose", "value": "2.9 ± 0.7"},
      {"measurement": "Neutrophil cell counts", "setting": "MAD 20.0 mg/kg, Day 3 predose", "value": "4.3 ± 1.2"},
      {"measurement": "White blood cells counts", "setting": "MAD 20.0 mg/kg, Day 3 predose", "value": "7.9 ± 0.7"},
      {"measurement": "Eosinophils", "setting": "MAD 20.0 mg/kg, Day 7 predose", "value": "0.15 10^9/L"},
      {"measurement": "Lymphocytes", "setting": "MAD 20.0 mg/kg, Day 7 predose", "value": "3.2 ± 0.9"},
      {"measurement": "Neutrophil cell counts", "setting": "MAD 20.0 mg/kg, Day 7 predose", "value": "4.4 ± 0.7"},
      {"measurement": "White blood cells counts", "setting": "MAD 20.0 mg/kg, Day 7 predose", "value": "8.2 ± 1.0"},
      {"measurement": "Eosinophils", "setting": "MAD 20.0 mg/kg, Day 12 predose", "value": "0.12 10^9/L"},
      {"measurement": "Lymphocytes", "setting": "MAD 20.0 mg/kg, Day 12 predose", "value": "3.2 ± 0.4"},
      {"measurement": "Neutrophil cell counts", "setting": "MAD 20.0 mg/kg, Day 12 predose", "value": "4.4 ± 0.4"},
      {"measurement": "White blood cells counts", "setting": "MAD 20.0 mg/kg, Day 12 predose", "value": "8.3 ± 0.5"},
      {"measurement": "Eosinophils", "setting": "MAD 20.0 mg/kg, Day 14 predose", "value": "0.16 10^9/L"},
      {"measurement": "Lymphocytes", "setting": "MAD 20.0 mg/kg, Day 14 predose", "value": "3.1 ± 0.4"},
      {"measurement": "Neutrophil cell counts", "setting": "MAD 20.0 mg/kg, Day 14 predose", "value": "4.6 ± 0.4"},
      {"measurement": "White blood cells counts", "setting": "MAD 20.0 mg/kg, Day 14 predose", "value": "8.5 ± 0.4"},
      {"measurement": "Eosinophils", "setting": "[7]", "value": "0.16 10^9/L"},
      {"measurement": "Lymphocytes", "setting": "[7]", "value": "2.2 ± 0.3"},
      {"measurement": "Neutrophil cell counts", "setting": "[7]", "value": "4.0 ± 0.3"},
      {"measurement": "White blood cells counts", "setting": "[7]", "value": "6.8 ± 0.2"},
      {"measurement": "Eosinophils", "setting": "[8]", "value": "0.26 10^9/L"},
      {"measurement": "Lymphocytes", "setting": "[8]", "value": "2.2 ± 0.3"},
      {"measurement": "Neutrophil cell counts", "setting": "[8]", "value": "4.0 ± 0.3"},
      {"measurement": "White blood cells counts", "setting": "[8]", "value": "6.8 ± 0.4"},
      {"measurement": "Eosinophils", "setting": "[9]", "value": "0.32 10^9/L"},
      {"measurement": "Lymphocytes", "setting": "[9]", "value": "2.6 ± 0.5"},
      {"measurement": "Neutrophil cell counts", "setting": "[9]", "value": "3.9 ± 1.1"},
      {"measurement": "White blood cells counts", "setting": "[9]", "value": "7.3 ± 1.1"},
      {"measurement": "Eosinophils", "setting": "[10]", "value": "0.25 10^9/L"},
      {"measurement": "Lymphocytes", "setting": "[10]", "value": "2.0 ± 0.5"},
      {"measurement": "Neutrophil cell counts", "setting": "[10]", "value": "3.5 ± 1.2"},
      {"measurement": "White blood cells counts", "setting": "[10]", "value": "6.1 ± 1.1"},
      {"measurement": "white blood cell counts", "setting": "any MAD dose group", "value": "No significant changes"}
    ]}
  ]
}
